# Read-outs that look alike come from different tables or passages of the source.
# Columns and labels:
# K562 = assay: XTT cell viability assay, K562 CML cells; assay type: cell-based, human; conditions: Homo sapiens, K562, 48 h, SD 10%, mean of three experiments
# Outline: (§1)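 Viability measured by XTT bio-reduction, which depends on NAD(P)H from glycolysis and occurs only in live cells. Orange formazan quantified at 490 nm; each assay done in quadruplicate.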
# 786-O cells = assay: Ectopic model of RCC (786-O xenograft); assay type: in vivo, nude (nu/nu) female mice; conditions: C29 100 µg i.p. three per week; danirixin 200 µg three times a week; sunitinib 50 mg/kg oral gavage five times a week
# Method: These studies were carried out in strict accordance with the recommendations in the Guide for the Care and Use of Laboratory Animals. Our experiments were approved by the ''Comité National Institutionnel d'Ethique pour l'Animal de Laboratoire'' (reference: PEA-255 and PEA-277). Cells were injected subcutaneously into the flank of 5-week-old nude (nu/nu) female mice (Janvier). When the tumor reached 100 mm^3, mice were treated. The tumor volume was determined with a caliper (v = L*l2*0.5).
# 2- Seven million 786-O cells were injected subcutaneously.
# [1] = system: cisplatin-resistant CAL27 cells (CAL27R); assay: XTT cell viability assay, cisplatin-resistant CAL27 cells; assay type: cell-based, human; conditions: 1 to 10 µM 48 h, 2.5 µM 24 to 96 h
# Method: (§2) Fifty microliters of sodium 3′-[1-phenylaminocarbonyl)-3,4-tetrazolium]-bis(4-methoxy-6-nitro) benzene sulfonic acid hydrate (XTT) reagent was added to each well. The assay is based on the cleavage of the yellow tetrazolium salt XTT to form an orange formazan dye by metabolically active cells. This bio-reduction occurs in viable cells only and is related to NAD(P)H production through glycolysis. Therefore, the amount of formazan dye measured at 490 nm directly correlated with the number of metabolically active cells reflecting cell proliferation and viability. Each assay was performed in quadruplicate.
# CXCR1 = molecular target: T1, CXCR1 (Homo sapiens, UniProt P25024); assay: Membrane-associated CXCR1 level in HuVEC by flow cytometry; assay type: cell-based; conditions: CXCL7 25 ng/ml 1 h, C29 2.5 µmol/L
# T1 construct: CXCR1/2 are expressed on endothelial cells and participate in ELR^+CXCL-mediated angiogenesis; endogenous in cells; host or cells: HuVEC
# [2] = system: 786, 786R, CAL27 and CAL27R cells; assay: Apoptosis analysis (annexin-V/PI flow cytometry); assay type: cell-based, human; conditions: sensitive and resistant cells, 2.5 µM, 48 h
# Method: Apoptosis analysis: After stimulation, cells were washed with ice-cold PBS and were stained with the annexin-V-fluo staining kit (Roche, Meylan, France) according to the manufacturer's procedure. Fluorescence was measured using the FL2 (AV) and FL3 (propidium iodide, PI) channels of a fluorescence-activated cell sorter apparatus (Calibur cytometer).
# CAL33 = assay: XTT cell viability assay, CAL33 HNSCC cells; assay type: cell-based, human; conditions: for IC50: Homo sapiens, CAL-33
# Outline: as §1
# Molm13 = assay: XTT cell viability assay, Molm13 AML cells; assay type: cell-based, human; conditions: Homo sapiens, MOLM-13, 48 h, SD 10%, mean of three experiments
# Outline: as §1
# CXCR2 = molecular target: T2, CXCR2 (Homo sapiens, UniProt P25025); assay: Membrane-associated CXCR2 level in HuVEC by flow cytometry; assay type: cell-based; conditions: CXCL8 25 ng/ml 1 h, C29 2.5 µmol/L
# T2 construct: CXCR1/2 are expressed on endothelial cells and participate in ELR^+CXCL-mediated angiogenesis; endogenous in cells; host or cells: HuVEC
# Method: CXCR2 measurement: After stimulation, cells were washed with PBS and stained with the CXCR2-PE antibody (Miltenyi) for 30 min at room temperature. Fluorescence was measured using the FL2 (PE) channels of a fluorescence-activated cell sorter apparatus (Calibur cytometer).
# [3] = system: primary kidney tumor cells (CC); assay: Cell viability, primary kidney tumor cells CC; assay type: cell-based
# Method: as §2
# (§3) For the experiments with C29, we confirmed all the results by evaluating the cell viability. Cell viability and cell death was assessed using the ADAM-MC apparatus (NanoEnTek, Guro-gu, Seoul, Korea) based on fluorescent propidium iodide staining according to the manufacturer's instructions.
# (§4) To determine the selectivity of the activity of the substances tested, the selectivity index (SI) was calculated according to the equation previously described where SI = IC50 of a compound in a normal cell line/IC50 of the same compound in cancer cell line. The IC50 is the concentration required to kill 50% of the cell population.
# [4] = system: primary kidney tumor cells (TF); assay: Cell viability, primary kidney tumor cells TF; assay type: cell-based
# Method: as §2, §3, §4
# OCI-AML2 = assay: XTT cell viability assay, OCI-AML2 AML cells; assay type: cell-based, human; conditions: Homo sapiens, OCI-AML2, 48 h, SD 10%, mean of three experiments, read-out: IC50 L2 (AML)
# Outline: as §1
# [5] = system: ERK/MAP Kinase and PI3K/AKT signaling pathways; assay: p-ERK and p-AKT immunoblotting in RCC and HNSCC cells; assay type: cell-based, human; conditions: naive and resistant RCC and HNSCC cells, 2.5 µM, 1 h to 48 h
# Method: Cells were lysed in buffer containing 3% SDS, 10% glycerol and 0.825 mM Na2HPO4. 30 to 50 μg of proteins separated on 10% SDS-PAGE, transferred onto a PVDF membrane and then exposed to the appropriate antibodies. Proteins were visualized with the ECL system using horseradish peroxidase-conjugated anti-rabbit or anti-mouse antibodies.
# RCC4 = assay: XTT cell viability assay, RCC4 RCC cells; assay type: cell-based, human; conditions: Homo sapiens, RCC4, 48 h, SD 10%, mean of three experiments, read-out: IC50 R4 (Kidney RCC)
# Outline: as §1
# [6] = Hematological, renal and hepatic toxicity; assay type: in vivo
# HuVEC = assay: Boyden chamber migration assay; assay type: cell-based, human; conditions: CXCL7 50 ng/ml, 2.5 µmol/L compound
# Method: CXCL7 or VEGFA-stimulated chemotaxis assays were monitored using modified Boyden chambers containing polycarbonate membranes (8-μm pores, Transwell; Corning, Sigma). Cells were seeded onto the upper side of the filters and chambers were placed on 24-well plates containing CXCL7 (50ng/ml) or VEGFA (50ng/ml). Cell migration was followed for 24 h at 37°C in 5% CO2. Migratory cells on the lower membrane surface were fixed in 3% paraformaldehyde, stained with 0.1% crystal violet.
# [7] = system: panel of human tumor cell lines; assay: XTT screening on a panel of tumor cell lines; assay type: cell-based; conditions: Homo sapiens; read-out: IC50 values for several cancer cell lines
# Method: as §2
# [8] = C29 100mg/kg oral gavage, three weeks, ns vs CT
# T1 sequence (P25024 whole entry): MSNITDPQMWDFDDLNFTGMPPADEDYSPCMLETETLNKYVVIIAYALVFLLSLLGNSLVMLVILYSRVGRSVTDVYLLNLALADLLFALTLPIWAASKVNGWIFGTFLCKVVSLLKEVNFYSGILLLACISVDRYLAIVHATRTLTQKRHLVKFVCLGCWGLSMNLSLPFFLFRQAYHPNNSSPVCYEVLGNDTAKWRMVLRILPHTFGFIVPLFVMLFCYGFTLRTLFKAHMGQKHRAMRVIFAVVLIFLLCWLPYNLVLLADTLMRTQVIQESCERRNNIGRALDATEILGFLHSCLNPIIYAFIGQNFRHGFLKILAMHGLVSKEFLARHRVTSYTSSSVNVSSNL
# T2 sequence (P25025 whole entry): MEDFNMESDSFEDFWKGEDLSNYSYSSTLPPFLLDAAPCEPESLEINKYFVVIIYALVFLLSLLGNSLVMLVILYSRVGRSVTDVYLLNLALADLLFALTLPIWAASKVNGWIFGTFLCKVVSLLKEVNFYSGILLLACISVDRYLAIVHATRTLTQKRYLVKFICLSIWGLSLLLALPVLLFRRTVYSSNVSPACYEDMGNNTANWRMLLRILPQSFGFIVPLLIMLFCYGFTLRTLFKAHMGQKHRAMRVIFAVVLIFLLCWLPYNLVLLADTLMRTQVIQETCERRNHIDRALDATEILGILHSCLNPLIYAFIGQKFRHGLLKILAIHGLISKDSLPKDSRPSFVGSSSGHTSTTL
compound,measurement,setting,value
O=C(Nc1cccc(Cl)c1)Nc1nc2ccc([N+](=O)[O-])cc2s1 [C29],IC50,K562,2000 nM
same,"efficacy on tumor growth, 786-O xenograft",786-O cells,as efficient as a dose of 50 mg/kg administered by oral gavage
same,effect on cisplatin-resistant CAL27 cell viability,[1],equivalent
same,CXCR1 levels at the plasma membrane,CXCR1,increased
same,cell death (annexin-V/PI),[2],induced cell death
same,IC50,"CAL33; CXCR1+/CXCR2+, read-out: IC50 CAL33",4 µM
same,IC50,"CAL33; XTT assay, 48 h, SD 10%, mean of three experiments, read-out: IC50 33 (HNSCC)",4 µM
same,Selectivity index CAL33,CAL33; SI = IC50 in normal cells (15S)/IC50 in CAL33,3.13
same,IC50,Molm13,7 µM
same,CXCR2 levels at the plasma membrane,CXCR2,increased
same,IC50,[3]; CXCR1+/CXCR2+,2000 nM
same,proliferation of primary kidney tumor cells CC,[3]; Figure S8A-B,significantly decreased
same,Selectivity index CC,[3]; SI = IC50 in normal cells (15S)/IC50 in CC,6.25
same,IC50,[4]; CXCR1+/CXCR2+,3.2 µM
same,proliferation of primary kidney tumor cells TF,[4]; Figure S8A-B,significantly decreased
same,Selectivity index TF,[4]; SI = IC50 in normal cells (15S)/IC50 in TF,3.91
same,IC50,OCI-AML2,5 µM
same,"ERK/MAP Kinase and PI3K/AKT signaling pathways (p-ERK, p-AKT)",[5],inhibited
same,IC50,RCC4,5 µM
same,"hematological, renal or hepatic toxicity",[6]; 100mg/kg by oral gavage five times a week for three weeks,"did not induce hematological, renal or hepatic toxicity"
same,Basophils,[6]; [8],0.07089 ± 0.02 k/µl
same,Eosinophils,[6]; [8],0.1760 ± 0.04 k/µl
same,Hematocrit,[6]; [8],26.22 ± 2.45%
same,Hemoglobin,[6]; [8],14.67 ± 1.22 g/dL
same,Leucocytes,[6]; [8],4.239 ± 0.60 k/µl
same,Lymphocytes,[6]; [8],2.943 ± 0.38 k/µl
same,Mean Corpuscular Volume,[6]; [8],112.0 ± 1.054 fL
same,Mean corpuscular hemoglobin,[6]; [8],31.46 ± 0.79 pg
same,Mean platelet volume,[6]; [8],12.81 ± 0.08 fL
same,Monocytes,[6]; [8],0.2664 ± 0.04 k/µl
same,Neutrophils,[6]; [8],0.6760 ± 0.11 k/µl
same,Platelets,[6]; [8],375.7 ± 77.93 k/µl
same,Red blood cells,[6]; [8],10.33 ± 0.98 M/µl
same,CXCL7-dependent migration of HuVECs,HuVEC,decreased
same,IC50,[7],< 20 µM

# Source: PMC6691587, “New CXCR1/CXCR2 inhibitors represent an effective treatment for kidney or head and neck cancers sensitive or refractory to reference treatments” (Theranostics, 2019)
